# From patent US9145424B2, “Treatment of amyotrophic lateral sclerosis” (Northwestern University, priority 2008, dated 2015)
# “Also recorded” adds a separate entry of the source. Read-outs that look alike come from different tables or passages of the source. Where a SMILES comes first, the peptide text is derived from it. The star is where a group is joined. Cbz = O=C(OCc1ccccc1)*
# Experiments:
# human HSP70 promoter = assay: Activation of cellular heat shock response (HeLa hse-luc luciferase reporter); type: cell-based; conditions: 8 h
# Method: FIG. 6. Arylsulfanyl pyrazolones fail to induce heat shock response in Hsp 70 promoter assays. HeLa hse-luc cells were treated with arylsulfanyl pyrazolones (1 μM-100 μM), celestrol (1 μM-5 μM), or CdCl2 (10 μM-100 μM), for 8 h and activation of the heat shock response determined by HSP70 promoter activity.
# (§1) Mechanism of action studies have been initiated for provided compounds. provided compounds active in the cytotoxicity protection assay were initially assayed for the ability to prevent SOD1 aggregation using manual, low-throughput methods. […] The ability of provided compounds to induce expression of molecular chaperones was also tested using stably-transfected HeLa cells (HeLa hse-luc) expressing a luciferase reporter gene under the control of the human HSP70 promoter. This HeLa hse-luc reporter system was used previously to identify small-molecule activators of the heat shock response (Westerheide et al. J. Biol. Chem. 2004, 279(53), 56053-56060).
# HeLa cells, stably transfected with a luciferase reporter plasmid under control of the HSP70 promoter, were plated in a 96 well plate at a density of 7500 cells/100 μl. […] Cells were lysed by the addition of 100 μl BrightGlo reagent (Promega) according to manufacturer's instructions and luciferase activity measured by quantifying luminescence signal. […]
# [1] = test system: proteasome activity (Ubi-YFP degradation); assay: Proteasome activity assay (Ubi-YFP in HeLa cells); type: cell-based
# Method: FIG. 7. Arylsulfanyl pyrazolones prevent MG132-induced accumulation of Ubi-YFP. HeLa cells were co-transfected with Ubi-YFP and CMV-CFP plasmids, treated with 1 μM MG132 and 25 μM arylsulfanyl pyrazolones and Ubi-YFP fluorescence intensity normalized to CFP.
# Since the CMB-003299 cytotoxicity of SOD1 protein aggregates may involve inhibition of proteasome activity, compounds that stimulate proteasome activity could reverse or prevent mutant SOD1-induced cytotoxicity. Thus, active compounds were tested for the ability to stimulate proteasome activity using a cell line expressing ubiquitin-conjugated YFP [Ubi-YFP 74]. In these cells, increased proteasome activity causes increased degradation of Ubi-YFP and decreased YFP fluorescence. Conversely, compounds that inhibit proteasome activity increase accumulation of Ubi-YFP and enhanced YFP fluorescence. As expected, MG132 augments YFP fluorescence intensity ˜3-fold compared to untreated controls (FIG. 7). […] Protein aggregates are present in the absence of MG132 and aggregation is suppressed following treatment with a provided compound.
# HeLa cells (20,000/chamber) were plated on 8 chambered Tissue-tek coverglass pretreated with 1 mg/ml poly-D-lysine and allowed to adhere for 18 h at 37° C./5% CO2. Cells were transfected with 0.2 μg each CMV-CFP and Ubi-YFP plasmids using Lipofectamine 2000 according to manufacturer's instructions. Cells were allowed to express CFP and Ubi-YFP for 18 h followed by a 6 h incubation with test compounds (25 μM). MG132 (1 μM) was added for a final 18 h incubation and Ubi-YFP degradation assessed by fluorescence microscopy. Fluorescence intensity of CFP and YFP was calculated on a cell-by-cell basis from captured images using AxioVision software (Zeiss). YFP fluorescence was normalized to CFP fluorescence.
# [2] = In vitro ADME: metabolic potential / microsomal stability, species not stated
# Method: Metabolism (microsome, S9 fraction, CYP450): Liver Cytochrome P450 (CYP450) enzymes are the major route for xenobiotic metabolism and microsomal and hepatocyte stability is the best predictor of pharmacokinetic half-life. Cross-species comparisons of metabolism in liver microsomes can predict potential issues with liver toxicity in humans. Selected active compounds are tested in liver microsomes from efficacy species (mouse), toxicity species (rat, dog, monkey), and humans for metabolic stability.
# CMB-003319 was evaluated for its in vitro ADME properties.
# Compounds were sent for in vitro ADME tests to evaluate their ADME properties.
# Caco-2 = assay: In vitro Caco-2 permeability; type: in vitro ADME
# Method: General Permeability: High membrane permeability is required for effective GI absorption and optimal bioavailability. Passive permeability is typically assessed in the PAMPA artificial membrane assay (Kansy et al., J. Med. Chem. 2002, 45(8), 1712-1722). Cell-based permeability determinations using the Caco-2 cell assay are more resource intensive but more predictive of active transport or efflux in vivo (Artursson et al., Adv. Drug. Deliv. Rev. 2001, 46(1-3), 27-43). Caco-2 assays are performed as needed during SAR development.
# [3] = In vitro plasma stability; type: in vitro ADME
# Method: Plasma stability: Plasma stability of active compounds is assessed in efficacy species (mouse), toxicity species (rat, dog, monkey), and human cells.
# Aqueous solubility = type: physicochemical
# Method: Solubility: Because compounds are stored in DMSO, it is necessary to determine aqueous solubility of initial hit compounds and their analogs. High solubility in aqueous solution is necessary for high GI absorption, bioavailability, and for chemical formulation. Compounds should be soluble in aqueous solution at >10 μg/ml. Solubility of >50 μg/ml is preferred.
# [4] = type: in vitro ADME; conditions: male, Sprague Dawley, 15 μM, pH 7.4; for % Mean ± S.E. / RR Mean (Response Ratio): rat
# [5] = NADPH dependent rat liver microsomal metabolite study by HPLC; type: in vitro ADME; conditions: NADPH dependent rat liver microsomes, up to 60 minutes
# Method: TC-II-68 and TC-II-70 were proposed as possible metabolites and prepared before the study.
# After 0, 5, 10, 20, 40, and 60 minutes incubation with rat liver microsome, 50 μL acetonitrile was added to quench reactions. The reaction mixture was vortexed and incubated in an ice bath for 2 h. The samples were centrifuged to remove the precipitated protein. The supernatant solutions were loaded directly for HPLC analysis.
# [6] = test system: PC12 cells that express mutant G93A SOD1; assay: Mutant SOD1-induced cytotoxicity protection assay; conditions: rat, 48 h
# Method: This idea was tested by examining the sensitivity of PC12 cells to SOD1 aggregates in the presence and absence of proteasome inhibitor MG132. PC12 cells expressing no SOD1, wild type SOD1, G85R SOD1 or G93A SOD1 were grown with or without MG132 (FIG. 1).
# PC12 cells expressing G93A SOD1 were treated with 100 nM MG132 with or without co-treatment with geldanamycin or radicicol.
# [7] = test system: PC12 cells expressing G85R SOD1; assay: Mutant SOD1 protein aggregation assay; type: cell-based
# Description: Compounds that are active in the above assay could theoretically protect against mutant SOD1-induced cytotoxicity through a number of mechanisms, including the following: 1) compounds could nonspecifically block or reverse protein aggregation via chaperone induction, as observed for radicicol and geldanamycin; 2) compounds could block or reverse the aggregation of a specific aggregated protein form; 3) compounds could interfere with an event downstream of protein aggregation that plays a critical role in mutant SOD1-induced cytotoxicity (e.g., proteasome function); and 4) compounds could act directly on SOD1 in a manner that prevents mutant SOD1 aggregation. These possibilities were tested using an assay that directly measures protein aggregation. In addition, unlike the high throughput cytotoxicity protection assay, the protein aggregation assay is based on G85R SOD1; this broadens the scope of the screening strategy, and should eliminate compounds with highly specific activity (i.e., G93A SOD1 limited) against protein aggregation.
# (§2) In PC12 cells that express wild-type SOD1, SOD1 was diffusely localized throughout the cell (Matsumoto et al., J. Cell. Biol. 2005, 171(1), 75-85). […] Therefore, these effects are likely to be due to MG132-induced proteasome inhibition, and not due to an off-target effect of MG132.
# The identification of a positive control is a crucial step in assay development. Thus, PC12 cells expressing G85R or G93A mutant SOD1 were treated with MG132 to induce protein aggregation, and then co-treated with candidate chemical suppressors of protein aggregation. […]
# To allow this assay to be used in a high-throughput manner, a Cellomics Arrayscan® high content microscopy system was used for screening and quantification. […]
# Arrayscan images were recorded using a 20× objective and the XF93-TRITC filter set in channel 1 for the Image-iT WGA plasma membrane dye or the XF93-FITC filter set for SOD1-YFP and analyzed using Cellomics spot detector software. […] Data were recorded as spot count (aggregate)/object (cell).
# [8] = test system: PC12 cells expressing G93A mutant SOD1; assay: Mutant SOD1 protein aggregation; type: cell-based
# Method: as §2
# The identification of a positive control is a crucial step in assay development. Thus, PC12 cells expressing G85R or G93A mutant SOD1 were treated with MG132 to induce protein aggregation, and then co-treated with candidate chemical suppressors of protein aggregation. Two compounds with similar activity were identified in these experiments: geldanamycin and radicicol. Both compounds induce heat shock transcription factor […], which in turn induces the heat shock response (FIG. 4).
# as §1, with “This HeLa hse-luc reporter system was used previously to identify small-molecule activators of the heat shock response (Westerheide et al. J. Biol. Chem. 2004, 279(53), 56053-56060).” left out
# [9] = test system: PC12 cells expressing G93A SOD1; assay: Sensitivity of PC12 cells to proteasome inhibitor, calcein-AM viability; type: cell-based
# Method: (§3) FIGS. 1A-C. […] Cell survival was determined using the viability stain calcein-AM.
# [10] = test system: PC12 cells expressing no SOD1, wild type SOD1 and G85R SOD1; assay: as above; type: cell-based
# Method: as §3
# [11] = test system: PC12 cells expressing wild-type SOD1; assay: SOD1 protein aggregation, wild type control line; type: cell-based; conditions: cells treated with MG132
# Method: FIGS. 3A-F. Mutant but not wild type SOD1 aggregates in cells treated with the proteasome inhibitor MG132. Fluorescence micrographs of PC12 cells expressing YFP tagged wild type (WT), G93A mutant (G93A), and G85R mutant (G85R)SOD1 proteins (3A-C). The micrographs show the effects of treating cells with 200 nM MG132 for 24 hours (untreated cells are shown in insets on left, 3D-F, respectively). The wild type SOD1 expressing cells are unaffected while cells expressing mutant SOD1 show large perinuclear aggregates.
# as §2
compound,measurement,setting,value
"CC1=C(O)C(=O)C=C2C1=CC=C1[C@@]2(C)CC[C@@]2(C)[C@@H]3C[C@](C)(C(=O)O)CC[C@]3(C)CC[C@]12C [celastrol, celestrol]",luciferase activity (HSP70 promoter),human HSP70 promoter,strongly induced luciferase activity
Cc1cc(SCc2cc(=O)[nH][nH]2)c(Cl)cc1Cl [CMB-003319],effect on MG132-induced Ubi-YFP fluorescence,"[1]; 25 μM compound, 1 μM MG132",strongly inhibit
same,metabolic potential,[2],medium
same,"CaCO-2 permeability, in words",Caco-2,medium
same,"plasma stability, in words",[3],poor
same,"aqueous-solubility, in words",Aqueous solubility,medium
same,"rat liver microsomal stability, in words",[4],poor microsomal stability
"O=c1cc(CSc2ccc(Cl)cc2)[nH][nH]1 [TC-I-165, 5-((4-Chlorophenylthio)methyl)-1H-pyrazol-3(2H)-one]",% Mean ± S.E.,[4]; 0 min,100 ± 26.4%
same,RR Mean (Response Ratio),[4]; 0 min,2.529
same,% Mean ± S.E.,[4]; 20 min,12.4 ± 0.89%
same,RR Mean (Response Ratio),[4]; 20 min,0.314
same,microsomal metabolites,[5],only TC-II-68 was a direct metabolite; also recorded: the only direct metabolite from TC-I-165 was TC-II-68; also recorded: TC-II-70 is not a metabolite
"C[C@@H]1C[C@H]2O[C@@H]2/C=C\C=C\C(=O)Cc2c(Cl)c(O)cc(O)c2C(=O)O1 [Radicicol, reference compound]",efficacy (maximum viability at optimum dosage),[6],80%
same,proportion of cells with aggregates,"[7]; G85R or G93A mutant SOD1 cells, MG132 plus co-treatment, 75% without",25%
same,"effect on protein aggregation, in words",[7]; MG132-induced aggregation,decreases mutant SOD1 aggregation
same,"effect on protein aggregation, in words",[8]; MG132-treated cells,reduced formation of protein aggregates
CC(C)C[C@@H](C=O)NC(=O)[C@H](CC(C)C)NC(=O)[C@H](CC(C)C)NC(=O)OCc1ccccc1 [MG132] (Cbz-Leu-Leu-Leu-aldehyde),sensitivity of G93A SOD1 cells relative to the other lines,[9],approximately 5 fold
same,"toxicity, in words","[9]; 100 nM, 48 hours",selectively toxic
same,IC50,"[9]; Rattus norvegicus, PC-12, read-out: IC50 of proteasome inhibitor on cell viability",~75 nM
same,"toxicity, in words","[10]; 100 nM, 24 hours, any of the cell lines",no toxicity
same,IC50,"[10]; Rattus norvegicus, PC-12, cells expressing no SOD1, wild type SOD1 and G85R SOD1, read-out: IC50 of proteasome inhibitor on cell viability",~400 nM
same,cells containing protein aggregates,[7]; cells treated with MG132,up to 75%
same,cells with protein aggregates,[8]; following treatment with MG132,~75%
same,"aggregation, in words",[11],no aggregation was observed
same,YFP fluorescence intensity compared to untreated controls,[1]; 1 μM,~3 fold
[Cl][Cd][Cl] [CdCl2],luciferase activity (HSP70 promoter),human HSP70 promoter,strongly induced luciferase activity
